In US20260109732A1, “LIPID AMINES” (ModernaTX, Inc., priority 2021, published 2026):
Where a name gives a salt, the structure may show the parent alone.

What was measured:
HeLa cells [1] = assay: CFTR Protein Expression Assay in HeLa Cells; type: cell-based, Human; conditions: LNPs encapsulating CFTR mRNA, N=4 wells; 5 h serum-free then 24 h; immunofluorescence vs PBS control
Outline: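 HeLa cells dosed with CFTR mRNA LNPs (70 mM NaCl final buffer matrix) in serum-free MEM for 5 h, then complete MEM for 24 h. Fixed cells immunostained with anti-CFTR monoclonal and Alexa 488 secondary, imaged confocally; CFTR intensity per cell expressed as fold-change versus PBS buffer control, N=4 wells.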

HeLa cells [2] = assay: Luciferase Protein Expression Assay in HeLa Cells; type: cell-based, Human; conditions: LNPs encapsulating Luciferase mRNA, 25 ng per well, N=4 wells; 5 h serum-free then 24 h; ONE-Glo
Outline: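 HeLa cells received LNPs carrying luciferase mRNA (25 ng per well) or PBS in serum-free MEM for 5 h, then complete MEM for a further 24 h. Luciferase then read by ONE-Glo luminescence after lysis and reported as average RLU of 4 replicate wells.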

[3] = Diameter and PDI from DLS measurements of mRNA nanoparticles with lipid amines; type: physicochemical
Outline: (§1)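 Ionizable lipid nanoparticles (IL1:DSPC:cholesterol:PEG-DMG-2K) formed by vortex mixing at pH 4, loaded with luciferase or CFTR mRNA at N:P 4.93, neutralized with TRIS pH 8.12, then modified with lipid amine SA50 at pH 7.5. Particle diameter and PDI read by DLS; mRNA encapsulation by Ribogreen assay.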

[4] = Encapsulation of mRNA nanoparticles with lipid amines using Ribogreen assay; type: physicochemical
Outline: as §1

[5] = CFTR mRNA nanoparticle with lipid amine
[6] = Luciferase mRNA nanoparticle modified with lipid amine

Compound: CC[C@H](CC[C@@H](C)[C@H]1CC[C@H]2[C@@H]3CC=C4C[C@@H](SSCCC(=O)N(CCCCCCCC(C)N)CCC(C)N)CC[C@]4(C)[C@H]3CC[C@]12C)C(C)C (stereo partly drawn) [SA178, N-(3-aminobutyl)-N-(8-aminononyl)-3-(((3S,8S,9S,10R,13R,14S,17R)-17-((2R,5R)-5-ethyl-6-methylheptan-2-yl)-10,13-dimethyl-2,3,4,7,8,9,10,11,12,13,14,15,16,17-tetradecahydro-1H-cyclopenta[a]phenanthren-3-yl)disulfaneyl)propanamide dihydrochloride]
- Average fold-change in CFTR signal intensity per cell compared to buffer control ± standard deviation (HeLa cells [1]): 9.8 ± 0.3 fold-change
- Average Relative Light Units ± Standard Deviation (HeLa cells [2]): 10196.5 ± 602.4 Relative Light Units
- Diameter (nm) [3, 5]: 83 nm
- PDI [3, 5]: 0.26
- Diameter (nm) [3, 6]: 75 nm
- PDI [3, 6]: 0.20
- % Encapsulation (Ribogreen) [4, 5]: 100%
- % Encapsulation (Ribogreen) [4, 6]: 98.8%

Compound: CC[C@H](CC[C@@H](C)[C@H]1CC[C@H]2[C@@H]3CC=C4C[C@@H](SSCCC(=O)N(CCCCCCCC(C)(C)N)CCC(C)(C)N)CC[C@]4(C)[C@H]3CC[C@]12C)C(C)C [SA179, N-(3-amino-3-methylbutyl)-N-(8-amino-8-methylnonyl)-3-(((3S,8S,9S,10R,13R,14S,17R)-17-((2R,5R)-5-ethyl-6-methylheptan-2-yl)-10,13-dimethyl-2,3,4,7,8,9,10,11,12,13,14,15,16,17-tetradecahydro-1H-cyclopenta[a]phenanthren-3-yl)disulfaneyl)propanamide dihydrochloride]
- Average fold-change in CFTR signal intensity per cell compared to buffer control ± standard deviation (HeLa cells [1]): 7.0 ± 0.6 fold-change
- Average Relative Light Units ± Standard Deviation (HeLa cells [2]): 12298.9 ± 928.6 Relative Light Units
- Diameter (nm) [3, 5]: 73 nm
- PDI [3, 5]: 0.15
- Diameter (nm) [3, 6]: 73 nm
- PDI [3, 6]: 0.17
- % Encapsulation (Ribogreen) [4, 5]: 99.8%
- % Encapsulation (Ribogreen) [4, 6]: 99.0%

Compound: CC[C@H](CC[C@@H](C)[C@H]1CC[C@H]2[C@@H]3CC=C4C[C@@H](SSCCC(=O)N(CCCCNCCC(N)(CC)CC)CCC(N)(CC)CC)CC[C@]4(C)[C@H]3CC[C@]12C)C(C)C [SA181, N-(3-amino-3-ethylpentyl)-N-(4-((3-amino-3-ethylpentyl)amino)butyl)-3-(((3S,8S,9S,10R,13R,14S,17R)-17-((2R,5R)-5-ethyl-6-methylheptan-2-yl)-10,13-dimethyl-2,3,4,7,8,9,10,11,12,13,14,15,16,17-tetradecahydro-1H-cyclopenta[a]phenanthren-3-yl)disulfaneyl)propanamide trihydrochloride]
- Average fold-change in CFTR signal intensity per cell compared to buffer control ± standard deviation (HeLa cells [1]): 6.3 ± 0.4 fold-change
- Average Relative Light Units ± Standard Deviation (HeLa cells [2]): 12107.3 ± 1481.4 Relative Light Units
- Diameter (nm) [3, 5]: 69 nm
- PDI [3, 5]: 0.13
- Diameter (nm) [3, 6]: 74 nm
- PDI [3, 6]: 0.16
- % Encapsulation (Ribogreen) [4, 5]: 98.7%
- % Encapsulation (Ribogreen) [4, 6]: 99.5%

Compound: CC[C@H](CC[C@@H](C)[C@H]1CC[C@H]2[C@@H]3CC=C4C[C@@H](OC(=O)CCCC(=O)N(CCCCNCCC(N)(CC)CC)CCC(N)(CC)CC)CC[C@]4(C)[C@H]3CC[C@]12C)C(C)C [SA182, (3S,8S,9S,10R,13R,14S,17R)-17-((2R,5R)-5-ethyl-6-methylheptan-2-yl)-10,13-dimethyl-2,3,4,7,8,9,10,11,12,13,14,15,16,17-tetradecahydro-1H-cyclopenta[a]phenanthren-3-yl 5-((3-amino-3-ethylpentyl)(4-((3-amino-3-ethylpentyl)amino)butyl)amino)-5-oxopentanoate trihydrochloride]
- Average fold-change in CFTR signal intensity per cell compared to buffer control ± standard deviation (HeLa cells [1]): 13.2 ± 0.9 fold-change
- Average Relative Light Units ± Standard Deviation (HeLa cells [2]): 38564.9 ± 12453 Relative Light Units
- Diameter (nm) [3, 5]: 72 nm
- PDI [3, 5]: 0.13
- Diameter (nm) [3, 6]: 73 nm
- PDI [3, 6]: 0.14
- % Encapsulation (Ribogreen) [4, 5]: 98.0%
- % Encapsulation (Ribogreen) [4, 6]: 99.0%

Compound: CC[C@H](CC[C@@H](C)[C@H]1CC[C@H]2[C@@H]3CC=C4C[C@@H](OC(=O)N(CCCCNCCC(N)(CC)CC)CCC(N)(CC)CC)CC[C@]4(C)[C@H]3CC[C@]12C)C(C)C [SA183, (3S,8S,9S,10R,13R,14S,17R)-17-((2R,5R)-5-ethyl-6-methylheptan-2-yl)-10,13-dimethyl-2,3,4,7,8,9,10,11,12,13,14,15,16,17-tetradecahydro-1H-cyclopenta[a]phenanthren-3-yl (3-amino-3-ethylpentyl)(4-((3-amino-3-ethylpentyl)amino)butyl)carbamate trihydrochloride]
- Average fold-change in CFTR signal intensity per cell compared to buffer control ± standard deviation (HeLa cells [1]): 13.6 ± 0.7 fold-change
- Average Relative Light Units ± Standard Deviation (HeLa cells [2]): 33915.2 ± 6639.9 Relative Light Units
- Diameter (nm) [3, 5]: 71 nm
- PDI [3, 5]: 0.14
- Diameter (nm) [3, 6]: 76 nm
- PDI [3, 6]: 0.21
- % Encapsulation (Ribogreen) [4, 5]: 99.0%
- % Encapsulation (Ribogreen) [4, 6]: 99.6%

Compound: CCC(N)(CC)CCNCCCCN(CCC(N)(CC)CC)C(=O)CCSS[C@H]1CC[C@@]2(C)C(=CC[C@H]3[C@@H]4CC[C@H]([C@H](C)CCCC(C)C)[C@@]4(C)CC[C@@H]32)C1 [SA184, N-(3-amino-3-ethylpentyl)-N-(4-((3-amino-3-ethylpentyl)amino)butyl)-3-(((3S,8S,9S,10R,13R,14S,17R)-10,13-dimethyl-17-((R)-6-methylheptan-2-yl)-2,3,4,7,8,9,10,11,12,13,14,15,16,17-tetradecahydro-1H-cyclopenta[a]phenanthren-3-yl)disulfaneyl)propanamide trihydrochloride]
- Average fold-change in CFTR signal intensity per cell compared to buffer control ± standard deviation (HeLa cells [1]): 11.3 ± 0.7 fold-change
- Average Relative Light Units ± Standard Deviation (HeLa cells [2]): 26222.4 ± 4612.1 Relative Light Units
- Diameter (nm) [3, 5]: 71 nm
- PDI [3, 5]: 0.13
- Diameter (nm) [3, 6]: 74 nm
- PDI [3, 6]: 0.12
- % Encapsulation (Ribogreen) [4, 5]: 99.0%
- % Encapsulation (Ribogreen) [4, 6]: 98.8%

Compound: CCC(N)(CC)CCNCCCCN(CCC(N)(CC)CC)C(=O)CCCC(=O)O[C@H]1CC[C@@]2(C)C(=CC[C@H]3[C@@H]4CC[C@H]([C@H](C)CCCC(C)C)[C@@]4(C)CC[C@@H]32)C1 [SA185, (3S,8S,9S,10R,13R,14S,17R)-10,13-dimethyl-17-((R)-6-methylheptan-2-yl)-2,3,4,7,8,9,10,11,12,13,14,15,16,17-tetradecahydro-1H-cyclopenta[a]phenanthren-3-yl 5-((3-amino-3-ethylpentyl)(4-((3-amino-3-ethylpentyl)amino)butyl)amino)-5-oxopentanoate trihydrochloride]
- Average fold-change in CFTR signal intensity per cell compared to buffer control ± standard deviation (HeLa cells [1]): 14.2 ± 1.0 fold-change
- Average Relative Light Units ± Standard Deviation (HeLa cells [2]): 36168.3 ± 7638.9 Relative Light Units
- Diameter (nm) [3, 5]: 73 nm
- PDI [3, 5]: 0.16
- Diameter (nm) [3, 6]: 75 nm
- PDI [3, 6]: 0.16
- % Encapsulation (Ribogreen) [4, 5]: 98.6%
- % Encapsulation (Ribogreen) [4, 6]: 99.4%
